# Tested on: PTPN22
# Assay: PTPN22 expression by western blot in shRNA-transduced RAMOS B cell line
# Assay type: cell-based
# Settings: human RAMOS B cell line, GFP+ shRNA+ vs GFP-
# Protocol: FIG. 10A depicts flow cytometry analysis of Ramos B cells transduction efficiency. Ramos B cells were transduced with three different GFP-tagged shRNA PTPN22 expressing lentiviruses and probed for GFP expression. […] Percentage of knock-down is indicated. FIG. 10B depicts the frequencies of polyreactive new emigrant B cells from sorted GFP− fractions were determined. […] For each B-cell fraction, the frequency of reactive (filled area) and non-reactive (open area) clones is summarized in pie charts with the total number of clones tested indicated in the center. FIG. 10C depicts the frequencies of HEp-2 reactive new emigrant B cells from sorted GFP− fractions were determined. […] For each B-cell fraction, the frequency of reactive (filled area) and non-reactive (open area) clones is summarized in pie charts with the total number of clones tested indicated in the center. FIG. 10D depicts the frequencies of antinuclear new emigrant B cells are compared between GFP− and GFP+ shRNA+ new emigrant B cells. […]
# Total cell lysates were separated by SDS page, transferred to PVDF membranes, probed with mouse anti-PTPN22 (Invitrogen) and detected by chemiluminescence (Amersham ECL Prime Western Blotting detection Reagent) using a GBox documentation system (Syngene). For quantification, blots were stripped with stripping buffer (Pierce) and reprobed with a mouse anti-β-Actin antibody (Sigma-Aldrich).
substance,measurement,value
"#3: shRNA targeting human PTPN22, 5′-AAGAATCCACCTGACTTCC-3′",inhibition of PTPN22 expression detected by western blot,about 80%
